Biological target: T1, human Cereblon WT GST-tagged protein (Homo sapiens, UniProt Q96SW2)
T1 construct: purchased CISBIO 64BDCRBNPEH
Test: CRBN binding, HTRF CEREBLON BINDING kit
Conditions: CRBN binding, HTRF CEREBLON BINDING kit
How it was run: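 Binding inhibition was calculated from the 665/620 nm emission ratios, with blank wells and solvent wells as references. Test compounds competed for GST-tagged human Cereblon WT against a Thalidomide-Re reagent paired with GST Eu antibody. Plates were sealed and held at room temperature for 3 hours before the HTRF read.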

T1 sequence (Q96SW2 whole entry): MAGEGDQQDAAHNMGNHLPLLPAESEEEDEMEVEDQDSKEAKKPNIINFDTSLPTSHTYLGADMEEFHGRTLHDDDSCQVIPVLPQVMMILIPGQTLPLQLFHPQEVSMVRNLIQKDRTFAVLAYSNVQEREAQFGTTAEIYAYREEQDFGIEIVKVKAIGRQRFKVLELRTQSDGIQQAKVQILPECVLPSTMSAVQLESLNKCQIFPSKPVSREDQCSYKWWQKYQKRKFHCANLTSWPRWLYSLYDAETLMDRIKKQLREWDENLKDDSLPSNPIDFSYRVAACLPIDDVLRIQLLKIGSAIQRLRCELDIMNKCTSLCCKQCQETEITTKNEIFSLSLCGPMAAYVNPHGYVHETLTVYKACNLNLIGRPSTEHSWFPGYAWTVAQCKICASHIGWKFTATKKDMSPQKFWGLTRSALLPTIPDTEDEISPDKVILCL

Row | IC50 [nM] | SMILES
1 | 1000 to 1900 | COc1cc(N2CCC(N3CCN(Cc4cccc(NC5CCC(=O)NC5=O)c4)CC3)CC2)ccc1Nc1ncc(Cl)c(Nc2ccccc2P(C)(C)=O)n1 (stereo not shown) [GT-07605, 3-((3-((4-(1-(4-((5-chloro-4-((2-(dimethylphosphoryl)phenyl)amino)pyrimidin-2-yl)amino)-3-methoxyphenyl)piperidin-4-yl)piperazin-1-yl)methyl)phenyl)amino)piperidine-2,6-dione]
2 | 500 to 1000 | O=C1CCN(c2cccc(CN3CCC(N4CCN(c5ccc(-c6cc(F)c7c(c6)C(=O)N(C(C(=O)Nc6nccs6)c6ncn8c6CCC8)C7)cc5)CC4)CC3)c2)C(=O)N1 (stereo not shown) [GT-06328, 2-(6,7-dihydro-5H-pyrrolo[1,2-c]imidazol-1-yl)-2-(6-(4-(4-(1-(3-(2,4-dioxotetrahydropyrimidin-1(2H)-yl)benzyl)piperidin-4-yl)piperazin-1-yl)phenyl)-4-fluoro-1-oxoisoindolin-2-yl)-N-(thiazol-2-yl)acetamide]
3 | 500 to 1000 | CC(C)n1nc(N2CCC(N3CCN(Cc4cccc(N5CCC(=O)NC5=O)c4)CC3)CC2)c2cnc(Nc3ccnc(-c4cnn(S(=O)(=O)C5CC5)c4)n3)cc21 [GT-06080, 1-(3-((4-(1-(6-((2-(1-(cyclopropylsulfonyl)-1H-pyrazol-4-yl)pyrimidin-4-yl)amino)-1-isopropyl-1H-pyrazolo[4,3-c]pyridin-3-yl)piperidin-4-yl)piperazin-1-yl)methyl)phenyl)dihydropyrimidine-2,4(1H,3H)-dione]
4 | 500 to 1000 | Cc1nc2c(F)cc(-c3nc(Nc4ccc(CN5CCN(Cc6ccc(C7CCC(=O)NC7=O)cc6)CC5)cn4)ncc3F)cc2n1C(C)C (stereo not shown) [GT-06664, 3-(4-((4-((6-((5-fluoro-4-(4-fluoro-1-isopropyl-2-methyl-1H-benzo[d]imidazol-6-yl)pyrimidin-2-yl)amino)pyridin-3-yl)methyl)piperazin-1-yl)methyl)phenyl)piperidine-2,6-dione]
5 | 1000 to 1900 | CC(C)(O)c1cc2nc(C3CCN(Cc4ccc(N5CCC(=O)NC5=O)cc4)CC3)oc2cc1NC(=O)c1cccc(C(F)(F)F)n1 [GT-05772, N-(2-(1-(4-(2,4-dioxotetrahydropyrimidin-1(2H)-yl)benzyl)piperidin-4-yl)-5-(2-hydroxypropan-2-yl)benzo[d]oxazol-6-yl)-6-(trifluoromethyl)picolinamide]
6 | < 500 | O=C1CCN(c2ccc(CN3CCC(n4cc(NC(=O)c5cnn6ccc(N7CCOCC7)nc56)c(C(F)F)n4)CC3)cc2)C(=O)N1 [GT-05798, N-(3-(difluoromethyl)-1-(1-(4-(2,4-dioxotetrahydropyrimidin-1(2H)-yl)benzyl)piperidin-4-yl)-1H-pyrazol-4-yl)-5-morpholinopyrazolo[1,5-a]pyrimidine-3-carboxamide]
7 | 500 to 1000 | COc1cc2nn(C3CCN(Cc4ccc(C5CCC(=O)NC5=O)cc4)CC3)cc2cc1NC(=O)c1cccc(C(F)(F)F)n1 (stereo not shown) [GT-04761, N-(2-(1-(4-(2,6-dioxopiperidin-3-yl)benzyl)piperidin-4-yl)-6-methoxy-2H-indazol-5-yl)-6-(trifluoromethyl)picolinamide]
8 | 500 to 1000 | CCc1cc2c(cc1N1CCN(Cc3cccc(N4CCC(=O)NC4=O)c3)CC1)C(C)(C)c1[nH]c3cc(C#N)ccc3c1C2=O [GT-07325, 8-(4-(3-(2,4-dioxotetrahydropyrimidin-1(2H)-yl)benzyl)piperazin-1-yl)-9-ethyl-6,6-dimethyl-11-oxo-6,11-dihydro-5H-benzo[b]carbazole-3-carbonitrile]
9 | 500 to 1000 | CN(C)C(=O)c1cc2cnc(Nc3ccc(N4CCN(Cc5cccc(N6CCC(=O)NC6=O)c5)CC4)cn3)nc2n1C1CCCC1 [GT-06341, 7-cyclopentyl-2-((5-(4-(3-(2,4-dioxotetrahydropyrimidin-1(2H)-yl)benzyl)piperazin-1-yl)pyridin-2-yl)amino)-N,N-dimethyl-7H-pyrrolo[2,3-d]pyrimidine-6-carboxamide]
10 | < 500 | O=C1CCC(c2cncc(CN3C[C@H]4C[C@@H]3CN4c3ccc(-c4cc(F)c5c(c4)C(=O)N(C(C(=O)Nc4nccs4)c4ncn6c4CCC6)C5)cc3)c2)C(=O)N1 (stereo partly drawn) [GT-07391, 2-(6,7-dihydro-5H-pyrrolo[1,2-c]imidazol-1-yl)-2-(6-(4-((1R,4R)-5-((5-(2,6-dioxopiperidin-3-yl)pyridin-3-yl)methyl)-2,5-diazabicyclo[2.2.1]heptan-2-yl)phenyl)-4-fluoro-1-oxoisoindolin-2-yl)-N-(thiazol-2-yl)acetamide]
11 | 500 to 1000 | Cc1nc2c(F)cc(-c3nc(Nc4ccc(N5CCC(N6CCN(Cc7cccc(N8CCC(=O)NC8=O)c7)CC6)CC5)cn4)ncc3F)cc2n1C(C)C [GT-06740, 1-(3-((4-(1-(6-((5-fluoro-4-(4-fluoro-1-isopropyl-2-methyl-1H-benzo[d]imidazol-6-yl)pyrimidin-2-yl)amino)pyridin-3-yl)piperidin-4-yl)piperazin-1-yl)methyl)phenyl)dihydropyrimidine-2,4(1H,3H)-dione]
12 | 1000 to 1900 | Cc1nc2c(F)cc(-c3nc(Nc4ccc(CN5CCN(Cc6ccc(N7CCC(=O)NC7=O)cn6)CC5)cn4)ncc3F)cc2n1C(C)C [GT-06667, 1-(6-((4-((6-((5-fluoro-4-(4-fluoro-1-isopropyl-2-methyl-1H-benzo[d]imidazol-6-yl)pyrimidin-2-yl)amino)pyridin-3-yl)methyl)piperazin-1-yl)methyl)pyridin-3-yl)dihydropyrimidine-2,4(1H,3H)-dione]
13 | 1000 to 1900 | Cc1nc2c(F)cc(-c3nc(Nc4ccc(CN5CCN(Cc6ccc(N7CCC(=O)NC7=O)cc6)CC5)cn4)ncc3F)cc2n1C(C)C [GT-06665, 1-(4-((4-((6-((5-fluoro-4-(4-fluoro-1-isopropyl-2-methyl-1H-benzo[d]imidazol-6-yl)pyrimidin-2-yl)amino)pyridin-3-yl)methyl)piperazin-1-yl)methyl)phenyl)dihydropyrimidine-2,4(1H,3H)-dione]

The next lines start with the compound.

Row | SMILES | IC50 [nM]
14 | O=C1CCC(Nc2cccc(CN3CCN(C4CCN(c5ccc(Nc6ncc7nc(Nc8ccccc8)n(C8CCCC8)c7n6)cc5)CC4)CC3)c2)C(=O)N1 (stereo not shown) [GT-05943, 3-((3-((4-(1-(4-((9-cyclopentyl-8-(phenylamino)-9H-purin-2-yl)amino)phenyl)piperidin-4-yl)piperazin-1-yl)methyl)phenyl)amino)piperidine-2,6-dione] | 500 to 1000
15 | O=C1CCN(c2ccc(CN3C[C@@H]4C[C@H]3CN4c3ccc(-c4cc(F)c5c(c4)C(=O)N(C(C(=O)Nc4nccs4)c4ncn6c4CCC6)C5)cc3)cc2)C(=O)N1 (stereo partly drawn) [GT-05116, 2-(6,7-dihydro-5H-pyrrolo[1,2-c]imidazol-1-yl)-2-(6-(4-((1S,4S)-5-(4-(2,4-dioxotetrahydropyrimidin-1(2H)-yl)benzyl)-2,5-diazabicyclo[2.2.1]heptan-2-yl)phenyl)-4-fluoro-1-oxoisoindolin-2-yl)-N-(thiazol-2-yl)acetamide] | 500 to 1000
16 | COc1cc(N2CCC(N3CCN(Cc4cccc(N5CCC(=O)NC5=O)c4)CC3)CC2)c(C)cc1Nc1ncc(Br)c(Nc2ccc3nccnc3c2P(C)(C)=O)n1 [GT-04260, 1-(3-((4-(1-(4-((5-bromo-4-((5-(dimethylphosphoryl)quinoxalin-6-yl)amino)pyrimidin-2-yl)amino)-5-methoxy-2-methylphenyl)piperidin-4-yl)piperazin-1-yl)methyl)phenyl)dihydropyrimidine-2,4(1H,3H)-dione] | 1000 to 1900
17 | CC(C)(O)c1cc2nc(C3CCN(Cc4ccc(N5CCC(=O)NC5=O)cn4)CC3)oc2cc1NC(=O)c1cccc(C(F)(F)F)n1 [GT-05774, N-(2-(1-((5-(2,4-dioxotetrahydropyrimidin-1(2H)-yl)pyridin-2-yl)methyl)piperidin-4-yl)-5-(2-hydroxypropan-2-yl)benzo[d]oxazol-6-yl)-6-(trifluoromethyl)picolinamide] | 1000 to 1900
18 | CN(Cc1cccc(N2CCC(=O)NC2=O)c1)C1CCN(c2ccc(Nc3ncc4nc(Nc5ccccc5)n(C5CCCC5)c4n3)cc2)CC1 [GT-05870, 1-(3-(((1-(4-((9-cyclopentyl-8-(phenylamino)-9H-purin-2-yl)amino)phenyl)piperidin-4-yl)(methyl)amino)methyl)phenyl)dihydropyrimidine-2,4(1H,3H)-dione] | 500 to 1000
19 | CN1CCN([C@@H]2CCCN(c3cnc(C(N)=O)c(Nc4ccc(C5CCN(Cc6ccc(N7CCC(=O)NC7=O)c(F)c6)CC5)cc4)n3)C2)C1=O [GT-04801, (R)-3-((4-(1-(4-(2,4-dioxotetrahydropyrimidin-1(2H)-yl)-3-fluorobenzyl)piperidin-4-yl)phenyl)amino)-5-(3-(3-methyl-2-oxoimidazolidin-1-yl)piperidin-1-yl)pyrazine-2-carboxamide] | < 500
20 | CCc1cc2c(cc1N1CCC(N3CCN(Cc4ccc(N5CCC(=O)NC5=O)cc4)CC3)CC1)C(C)(C)c1[nH]c3cc(C#N)ccc3c1C2=O [GT-07307, 8-(4-(4-(4-(2,4-dioxotetrahydropyrimidin-1(2H)-yl)benzyl)piperazin-1-yl)piperidin-1-yl)-9-ethyl-6,6-dimethyl-11-oxo-6,11-dihydro-5H-benzo[b]carbazole-3-carbonitrile] | 500 to 1000
21 | O=C1CCN(c2ccc(CN3C4CCC3CN(c3ccc(-c5cc(F)c6c(c5)C(=O)N(C(C(=O)Nc5nccs5)c5ncn7c5CCC7)C6)cc3)C4)cc2)C(=O)N1 (stereo not shown) [GT-06253, 2-(6,7-dihydro-5H-pyrrolo[1,2-c]imidazol-1-yl)-2-(6-(4-(8-(4-(2,4-dioxotetrahydropyrimidin-1(2H)-yl)benzyl)-3,8-diazabicyclo[3.2.1]octan-3-yl)phenyl)-4-fluoro-1-oxoisoindolin-2-yl)-N-(thiazol-2-yl)acetamide] | 500 to 1000
22 | CN1CCN([C@@H]2CCCN(c3cnc(C(N)=O)c(Nc4ccc(C5CCN(Cc6cccc(N7CCC(=O)NC7=O)c6)CC5)cc4)n3)C2)C1=O [GT-04800, (R)-3-((4-(1-(3-(2,4-dioxotetrahydropyrimidin-1(2H)-yl)benzyl)piperidin-4-yl)phenyl)amino)-5-(3-(3-methyl-2-oxoimidazolidin-1-yl)piperidin-1-yl)pyrazine-2-carboxamide] | 500 to 1000

— patent publication US20260274829A1, “NEW E3 UBIQUITIN LIGASE LIGAND, PROTEIN DEGRADATION AGENT AND USE THEREOF” (GLUETACS THERAPEUTICS (SHANGHAI) CO., LTD., priority 2023, published 2026)
